Data: the supplement of paper PMC10307832

What was measured:
Experiment in all cases: relative viability (nuclei count vs DMSO), 5 days (fraction); higher = more cells survive
IPA-3 + Palbociclib = compound: C1=CC=C2C(=C1)C=CC(=C2SSC3=C(C=CC4=CC=CC=C43)O)O [IPA-3] + CC(=O)c1c(C)c2cnc(Nc3ccc(N4CCNCC4)cn3)nc2n(C2CCCC2)c1=O [Palbociclib] (partner 0.5 µM)
Summary of the method: (§1)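 Values are medians from duplicate plates. Each reflects relative viability, defined as the nuclei count of treated wells over that of vehicle wells. Lung cancer cell lines in 1536-well plates were pin-tool dosed one day after seeding with one drug alone or with a fixed anchor-drug dose plus five library-drug doses (not always all listed) in √10 steps, then fixed, stained and imaged at 4× after 5 days.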

Doramapimod + Phenformin = compound: Cc1ccc(-n2nc(C(C)(C)C)cc2NC(=O)Nc2ccc(OCCN3CCOCC3)c3ccccc23)cc1 [Doramapimod] + N=C(N)NC(=N)NCCc1ccccc1 [Phenformin] (partner 250 µM)
Summary of the method: as §1

Doramapimod + Olaparib = compound: Cc1ccc(-n2nc(C(C)(C)C)cc2NC(=O)Nc2ccc(OCCN3CCOCC3)c3ccccc23)cc1 [Doramapimod] + O=C(c1cc(Cc2n[nH]c(=O)c3ccccc23)ccc1F)N1CCN(C(=O)C2CC2)CC1 [Olaparib] (partner 8 µM)
Summary of the method: as §1

RAF265 + Phenformin = compound: Cn1c(Nc2ccc(C(F)(F)F)cc2)nc2cc(Oc3ccnc(-c4ncc(C(F)(F)F)[nH]4)c3)ccc21 [RAF265] + N=C(N)NC(=N)NCCc1ccccc1 [Phenformin] (partner 250 µM)
Summary of the method: as §1

Cell Line | relative viability (IPA-3 + Palbociclib; first compound 0.2 µM) | relative viability (IPA-3 + Palbociclib; first compound 0.6325 µM) | relative viability (IPA-3 + Palbociclib; first compound 2 µM) | relative viability (IPA-3 + Palbociclib; first compound 6.325 µM) | relative viability (IPA-3 + Palbociclib; first compound 20 µM) | relative viability (Doramapimod + Phenformin; first compound 0.02 µM) | relative viability (Doramapimod + Phenformin; first compound 0.06325 µM) | relative viability (Doramapimod + Phenformin; first compound 0.2 µM) | relative viability (Doramapimod + Phenformin; first compound 0.6325 µM) | relative viability (Doramapimod + Phenformin; first compound 2 µM) | relative viability (Doramapimod + Olaparib; first compound 0.02 µM) | relative viability (Doramapimod + Olaparib; first compound 0.06325 µM) | relative viability (Doramapimod + Olaparib; first compound 0.2 µM) | relative viability (Doramapimod + Olaparib; first compound 0.6325 µM) | relative viability (Doramapimod + Olaparib; first compound 2 µM) | relative viability (RAF265 + Phenformin; first compound 0.01 µM) | relative viability (RAF265 + Phenformin; first compound 0.03162 µM) | relative viability (RAF265 + Phenformin; first compound 0.1 µM) | relative viability (RAF265 + Phenformin; first compound 0.3162 µM) | relative viability (RAF265 + Phenformin; first compound 1 µM)
NCI-H2170 | 0.447 | 0.389 | 0.364 | 0.334 | 0.441 | 0.418 | 0.403 | 0.474 | 0.368 | 0.426 | 0.596 | 0.643 | 0.57 | 0.588 | 0.605 | 0.408 | 0.38 | 0.453 | 0.319 | 0.366
HCC-366 | 0.479 | 0.382 | 0.374 | 0.378 | 0.474 | 0.623 | 0.605 | 0.671 | 0.635 | 0.547 | 0.331 | 0.333 | 0.318 | 0.368 | 0.303 | 0.594 | 0.552 | 0.596 | 0.435 | 0.45
NCI-H2347 | 0.409 | 0.45 | 0.429 | 0.414 | 0.448 | 0.429 |  | 0.429 | 0.386 | 0.398 | 0.618 | 0.641 | 0.546 | 0.575 | 0.53 | 0.338 | 0.426 | 0.394 | 0.218 | 0.166
COR-L 105 | 0.409 | 0.275 | 0.405 | 0.393 | 0.399 | 0.513 | 0.461 | 0.443 | 0.619 | 0.453 | 0.59 | 0.727 | 0.707 | 0.824 | 0.602 | 0.463 | 0.621 | 0.457 | 0.3 | 0.358
201T | 0.363 | 0.38 | 0.391 | 0.342 | 0.388 | 0.453 | 0.471 | 0.448 | 0.497 | 0.394 | 0.869 | 1.01 | 0.848 | 0.96 | 0.839 | 0.392 | 0.422 | 0.453 | 0.434 | 0.38
NCI-H2126 | 0.33 | 0.369 | 0.335 | 0.343 | 0.375 | 0.527 | 0.526 | 0.505 | 0.496 | 0.489 | 0.768 | 0.925 | 0.989 | 0.962 | 0.94 | 0.508 | 0.551 | 0.558 | 0.512 | 0.459
LC-2-ad | 0.545 | 0.495 | 0.479 | 0.451 | 0.518 | 0.571 | 0.619 | 0.641 | 0.517 | 0.487 | 0.692 | 0.801 | 0.759 | 0.732 | 0.766 | 0.628 | 0.581 | 0.586 | 0.394 | 0.455
NCI-H2085 | 0.474 | 0.457 | 0.471 | 0.436 | 0.54 | 0.758 | 0.623 | 0.592 | 0.705 | 0.661 | 0.886 | 0.844 | 0.756 | 0.871 | 0.823 | 0.858 | 0.683 | 0.742 | 0.642 | 0.644
NCI-H358 | 0.141 | 0.117 | 0.153 | 0.14 | 0.157 | 0.301 | 0.314 | 0.305 | 0.385 | 0.356 | 0.54 | 0.565 | 0.516 | 0.676 | 0.511 | 0.419 | 0.308 | 0.252 | 0.144 | 0.149
H3255 | 0.306 | 0.308 | 0.29 | 0.298 | 0.272 | 0.356 | 0.345 | 0.391 | 0.366 | 0.411 | 0.591 | 0.567 | 0.573 | 0.567 | 0.539 | 0.358 | 0.378 | 0.372 |  | 0.349
NCI-H2228 | 0.825 | 0.71 | 0.474 | 1 | 0.752 | 0.249 | 0.385 | 0.273 | 0.333 | 0.27 | 0.558 | 0.599 | 0.857 | 0.811 | 0.592 | 0.287 | 0.387 | 0.357 | 0.203 | 0.186
CAL-12T | 0.718 | 0.342 | 0.404 | 0.28 | 0.421 | 0.552 | 0.593 | 0.621 | 0.625 | 0.479 | 0.724 | 0.711 | 0.68 | 0.758 | 0.609 | 0.581 | 0.521 | 0.426 | 0.516 | 0.363
A-427 | 0.531 | 0.499 | 0.511 | 0.515 | 0.52 | 0.269 | 0.464 | 0.388 |  | 0.318 | 0.86 | 0.85 | 0.838 |  | 0.738 | 0.361 | 0.266 | 0.307 | 0.204 | 0.124
HARA | 0.255 | 0.24 | 0.255 | 0.27 | 0.235 | 0.464 | 0.495 | 0.464 |  | 0.425 | 0.741 | 0.709 | 0.839 | 0.835 | 0.76 | 0.498 | 0.345 | 0.445 | 0.39 | 0.329
NCI-H1793 | 0.345 | 0.288 | 0.311 | 0.318 | 0.371 | 0.365 | 0.346 | 0.346 | 0.381 | 0.256 | 0.741 | 0.816 | 0.768 | 1.08 | 0.821 | 0.352 | 0.351 | 0.298 |  | 0.262
NCI-H1623 |  |  |  |  |  | 0.635 | 0.636 | 0.57 | 0.354 | 0.544 |  |  |  |  |  | 0.652 | 0.578 | 0.646 |  | 0.388
NCI-H2009 | 0.203 | 0.202 | 0.2 | 0.231 | 0.151 | 0.506 | 0.543 | 0.546 | 0.478 | 0.408 | 0.669 | 0.697 | 0.669 | 0.712 | 0.622 | 0.479 | 0.416 | 0.407 | 0.468 | 0.38
